The source of these data is patent US9273014B2, “Bis(fluoroalkyl)-1,4-benzodiazepinone compounds and prodrugs thereof” (Bristol-Myers Squibb Company, priority 2012, dated 2016).

The nature of one data set: in vitro. The conditions noted are these: human, microsomes, pH 7.4.
The target of the next data set is human Notch 3 (Homo sapiens, UniProt Q9UM47). The data set is described as follows: Notch-CBF1 Transactivation Assay (Notch 3). It is filed as cell-based. The conditions noted are these: HeLa cells co-transfected with truncated Notch 3 and CBF1 luciferase reporter; 18 hours incubation. An excerpt:
Notch-CBF1 Transactivation Assay
The Notch-CBF1 (C-promoter binding factor I) cell based transactivation assay is based on the ability of the released Notch intracellular domain fragments (NICDs) to function as transcription factors in conjunction with CBF1 and other nuclear factors. Luciferase assays were used to measure the antagonism of Notch-CBF1 transcriptional activity. HeLa cervical cancer cells are transiently co-transfected with pCDNA3.1/Hygro plasmids containing truncated Notch 1, Notch 2, Notch 3, or Notch 4 receptors and a PGL3 luciferase reporter vector containing 4 copies of CBF1 binding site. The cells were then tested for Notch-CBF1 activity in the absence or presence of test compounds. HeLa cells, maintained in DMEM (high glucose with HEPES), 1× glutamine/penicillin/streptomycin and 10% Fetal Bovine serum, were transiently transfected in a T175 Flask (4.5×10^6 cells/flask) using the Monster Transfection Kit (Minis #MIR2906) according to manufacturers specifications. Table 9 denotes respective DNA quantity for the transfections.
Assay media (5 μL) containing test compounds in final concentrations ranging from 5 μM to 8.4×10^−5 μM (3 fold serial dilutions) were added to the cells and the cell plates were then incubated for 18 hours at 37° C. and 5% CO2. Control wells contained DMSO vehicle (total counts) or 0.5 μM of an in-house small molecule inhibitor (background counts). Duplicates were used for each sample. Luciferase activity was measured after a 20-minute incubation with 50 μl STEADY-GLO® luciferase reagents according to manufacturer's specifications (Promega, Cat. #E2550) and analyzed by Envision plate reader (PerkinElmer, Boston, Mass.).
The antagonist effect of compounds was expressed as 100×[1−(average sample-average background)/(average total−average background)] where sample is the luciferase activity in the presence of test compound, background is equal to the luciferase activity in the presence of the small molecule inhibitor control and the total is signal induced in DMSO wells.

Broadly, the half-life is the time needed for the level to fall by half in the phase considered. For orientation: IC50 means the concentration that inhibits the measured activity by half.

human Notch 3, sequence (Q9UM47 40-2321 limits assumed): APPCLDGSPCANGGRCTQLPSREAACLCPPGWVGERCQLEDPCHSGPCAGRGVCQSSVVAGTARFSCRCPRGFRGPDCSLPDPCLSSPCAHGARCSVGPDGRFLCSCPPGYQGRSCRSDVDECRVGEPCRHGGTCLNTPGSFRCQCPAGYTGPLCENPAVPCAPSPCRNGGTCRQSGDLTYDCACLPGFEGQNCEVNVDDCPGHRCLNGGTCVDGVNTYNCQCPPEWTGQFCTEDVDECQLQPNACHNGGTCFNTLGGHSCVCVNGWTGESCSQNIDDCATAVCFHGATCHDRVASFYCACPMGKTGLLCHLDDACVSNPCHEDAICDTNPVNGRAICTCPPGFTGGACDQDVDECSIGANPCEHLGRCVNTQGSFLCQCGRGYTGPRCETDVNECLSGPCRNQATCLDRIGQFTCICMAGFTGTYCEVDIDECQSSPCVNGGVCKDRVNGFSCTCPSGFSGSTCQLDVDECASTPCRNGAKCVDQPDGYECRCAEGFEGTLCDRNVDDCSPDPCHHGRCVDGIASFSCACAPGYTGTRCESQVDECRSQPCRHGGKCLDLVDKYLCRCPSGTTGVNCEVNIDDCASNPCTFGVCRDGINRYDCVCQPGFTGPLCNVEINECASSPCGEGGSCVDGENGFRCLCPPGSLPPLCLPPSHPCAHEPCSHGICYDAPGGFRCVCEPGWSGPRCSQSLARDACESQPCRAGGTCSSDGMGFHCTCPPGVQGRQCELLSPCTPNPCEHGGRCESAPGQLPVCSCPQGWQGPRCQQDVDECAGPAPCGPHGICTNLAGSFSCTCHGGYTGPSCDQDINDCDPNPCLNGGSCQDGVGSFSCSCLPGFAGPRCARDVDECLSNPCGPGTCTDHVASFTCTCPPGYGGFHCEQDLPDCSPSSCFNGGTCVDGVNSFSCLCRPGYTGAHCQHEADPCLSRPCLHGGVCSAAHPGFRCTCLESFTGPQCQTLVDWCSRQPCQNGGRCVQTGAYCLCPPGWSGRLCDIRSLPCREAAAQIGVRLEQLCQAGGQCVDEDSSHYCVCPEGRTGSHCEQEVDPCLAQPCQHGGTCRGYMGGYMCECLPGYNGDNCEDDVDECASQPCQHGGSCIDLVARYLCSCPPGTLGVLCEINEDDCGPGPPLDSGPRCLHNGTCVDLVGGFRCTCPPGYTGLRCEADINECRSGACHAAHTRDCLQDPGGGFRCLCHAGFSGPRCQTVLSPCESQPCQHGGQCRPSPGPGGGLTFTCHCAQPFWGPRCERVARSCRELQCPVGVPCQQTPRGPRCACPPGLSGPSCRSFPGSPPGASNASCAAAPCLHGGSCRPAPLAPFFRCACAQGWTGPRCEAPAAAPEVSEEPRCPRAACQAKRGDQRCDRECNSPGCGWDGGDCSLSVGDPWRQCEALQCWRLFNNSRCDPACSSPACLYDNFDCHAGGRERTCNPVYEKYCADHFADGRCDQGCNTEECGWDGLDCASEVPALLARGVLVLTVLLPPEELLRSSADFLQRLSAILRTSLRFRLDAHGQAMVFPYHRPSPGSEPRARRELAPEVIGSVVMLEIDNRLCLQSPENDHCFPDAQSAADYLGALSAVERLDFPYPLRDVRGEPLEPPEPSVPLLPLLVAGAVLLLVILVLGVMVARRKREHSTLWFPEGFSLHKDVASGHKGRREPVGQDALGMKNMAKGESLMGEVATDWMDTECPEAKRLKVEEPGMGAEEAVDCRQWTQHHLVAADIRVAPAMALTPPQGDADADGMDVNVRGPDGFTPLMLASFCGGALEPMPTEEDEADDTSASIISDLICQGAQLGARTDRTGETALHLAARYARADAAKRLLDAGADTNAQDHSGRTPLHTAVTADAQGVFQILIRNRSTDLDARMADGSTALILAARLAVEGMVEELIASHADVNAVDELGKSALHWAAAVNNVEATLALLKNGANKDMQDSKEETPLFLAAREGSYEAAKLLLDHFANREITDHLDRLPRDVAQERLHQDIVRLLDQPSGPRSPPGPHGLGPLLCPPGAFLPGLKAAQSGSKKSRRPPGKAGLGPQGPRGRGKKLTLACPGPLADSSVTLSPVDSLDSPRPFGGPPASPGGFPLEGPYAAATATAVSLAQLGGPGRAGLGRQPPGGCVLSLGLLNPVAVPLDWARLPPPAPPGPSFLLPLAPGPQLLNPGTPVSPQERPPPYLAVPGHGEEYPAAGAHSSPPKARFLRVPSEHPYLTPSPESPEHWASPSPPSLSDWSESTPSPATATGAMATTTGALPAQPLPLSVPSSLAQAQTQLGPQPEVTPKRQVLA

`CCC[C@H](C(N)=O)[C@@H](CC(C)C)C(=O)N[C@H]1N=C(c2ccccc2)c2ccccc2N(C)C1=O` [Comparative Compound 45, reference compound]: the half-life in the data set “in vitro” was 8 min. On the same count and under the same terms, under `C=CC[C@H](C(N)=O)[C@@H](CC(C)C)C(=O)N[C@H]1N=C(c2ccccc2)c2cc(Cl)ccc2N(C)C1=O` [Comparative Compound 46, reference compound] stands 6 min; under `CCCC[C@H](C(N)=O)[C@@H](CC(C)C)C(=O)N[C@H]1N=C(c2ccc(Cl)cc2)c2ccccc2N(C)C1=O` [Comparative Compound 47, reference compound], 6 min. Still for that read-out and setting: in the case of `C=CC[C@H](C(N)=O)[C@@H](CC(C)C)C(=O)N[C@H]1N=C(c2ccccc2)c2ccccc2N(CCC)C1=O` [Comparative Compound 48, reference compound] it was 3 min. As to `CCc1cccc2c1NC(=O)[C@@H](NC(=O)[C@H](CCC(F)(F)F)[C@H](CCC(F)(F)F)C(N)=O)N=C2c1cccc(Cl)c1` [Example 2, (2R,3S)—N-((3S)-5-(3-Chlorophenyl)-9-ethyl-2-oxo-2,3-dihydro-1H-1,4-benzodiazepin-3-yl)-2,3-bis(3,3,3-trifluoropropyl)succinamide], the IC50 against human Notch 3 was 4.3 nM. Further, the half-life in the data set “in vitro” amounted to 32 min. For `Cc1ccc(C2=N[C@H](NC(=O)[C@H](CCC(F)(F)F)[C@H](CCCC(F)(F)F)C(N)=O)C(=O)Nc3c(Cl)cccc32)cc1C` [Example 4, (2R,3S)—N-(9-Chloro-5-(3,4-dimethylphenyl)-2-oxo-2,3-dihydro-1H-1,4-benzodiazepin-3-yl)-3-(4,4,4-trifluorobutyl)-2-(3,3,3-trifluoropropyl)succinamide], 7.3 nM corresponded to half-maximal inhibition against human Notch 3 (IC50). In “in vitro”, this compound gave a half-life of 31 min.

`Cc1cc(C)cc(C2=N[C@H](NC(=O)[C@H](CCC(F)(F)F)[C@H](CCCC(F)(F)F)C(N)=O)C(=O)Nc3c(Cl)cccc32)c1` [Example 5, (2R,3S)—N-(9-Chloro-5-(3,5-dimethylphenyl)-2-oxo-2,3-dihydro-1H-1,4-benzodiazepin-3-yl)-3-(4,4,4-trifluorobutyl)-2-(3,3,3-trifluoropropyl)succinamide] came in with an IC50 at human Notch 3 of 4 nM. This compound also displayed a half-life in “in vitro” of 33 min.

Compound `CCc1cccc2c1NC(=O)[C@@H](NC(=O)[C@H](CCC(F)(F)F)[C@H](CCC(F)(F)F)C(N)=O)N=C2c1cccc(C)c1` [Example 6, (2R,3S)—N-((3S)-9-Ethyl-5-(3-methylphenyl)-2-oxo-2,3-dihydro-1H-1,4-benzodiazepin-3-yl)-2,3-bis(3,3,3-trifluoropropyl)succinamide] had an IC50 against human Notch 3 of 4.5 nM. Further, the half-life in “in vitro” worked out at 33 min.

The compound `Cc1cccc2c1NC(=O)[C@@H](NC(=O)[C@H](CCC(F)(F)F)[C@H](CCC(F)(F)F)C(N)=O)N=C2c1cccc(Cl)c1` [Example 7, (2R,3S)—N-((3S)-5-(3-Chlorophenyl)-9-methyl-2-oxo-2,3-dihydro-1H-1,4-benzodiazepin-3-yl)-2,3-bis(3,3,3-trifluoropropyl)succinamide] showed a half-life in “in vitro” of over 120 min. At human Notch 3, `Cc1cccc2c1NC(=O)[C@@H](NC(=O)[C@H](CCC(F)(F)F)[C@H](CCCC(F)(F)F)C(N)=O)N=C2c1cccc(Cl)c1` [Example 8, (2R,3S)—N-((3S)-5-(3-Chlorophenyl)-9-methyl-2-oxo-2,3-dihydro-1H-1,4-benzodiazepin-3-yl)-3-(4,4,4-trifluorobutyl)-2-(3,3,3-trifluoropropyl)succinamide] had an IC50 of 11.6 nM. The compound also returned a half-life in the data set “in vitro” of 71 min. On the same counts, the results for `Cc1cccc(C2=N[C@H](NC(=O)[C@H](CCC(F)(F)F)[C@H](CCC(F)(F)F)C(N)=O)C(=O)Nc3c2cccc3C(F)(F)F)c1` [Example 9, (2R,3S)—N-((3S)-5-(3-Methylphenyl)-2-oxo-9-(trifluoromethyl)-2,3-dihydro-1H-1,4-benzodiazepin-3-yl)-2,3-bis(3,3,3-trifluoropropyl)succinamide] are 3.7 nM and 113 min. On the same counts, the results for `Cc1cc(C)cc(C2=N[C@H](NC(=O)[C@H](CCC(F)(F)F)[C@H](CCC(F)(F)F)C(N)=O)C(=O)Nc3c(Cl)cccc32)c1` [Example 10, (2R,3S)—N-((3S)-9-Chloro-5-(3,5-dimethylphenyl)-2-oxo-2,3-dihydro-1H-1,4-benzodiazepin-3-yl)-2,3-bis(3,3,3-trifluoropropyl)succinamide] are 5.4 nM and 54 min. `Cc1cccc(C2=N[C@H](NC(=O)[C@H](CCC(F)(F)F)[C@H](CCCC(F)(F)F)C(N)=O)C(=O)Nc3c2cccc3C(F)(F)F)c1` [Example 11, (2R,3S)—N-((3S)-5-(3-Methylphenyl)-2-oxo-9-(trifluoromethyl)-2,3-dihydro-1H-1,4-benzodiazepin-3-yl)-3-(4,4,4-trifluorobutyl)-2-(3,3,3-trifluoropropyl)succinamide] showed a half-life in the data set “in vitro” of 42 min. On human Notch 3, `Cc1cccc(C2=N[C@H](NC(=O)[C@H](CCC(F)(F)F)[C@H](CCC(F)(F)F)C(N)=O)C(=O)Nc3c2cccc3C(C)C)c1` [Example 12, (2R,3S)—N-((3S)-9-Isopropyl-5-(3-methylphenyl)-2-oxo-2,3-dihydro-1H-1,4-benzodiazepin-3-yl)-2,3-bis(3,3,3-trifluoropropyl)succinamide] came in with an IC50 of 3.2 nM. The compound also yielded a half-life in “in vitro” of 53 min. On to `CC(C)c1cccc2c1NC(=O)[C@@H](NC(=O)[C@H](CCC(F)(F)F)[C@H](CCC(F)(F)F)C(N)=O)N=C2c1ccccc1` [Example 13, (2R,3S)—N-((3S)-9-Isopropyl-2-oxo-5-phenyl-2,3-dihydro-1H-1,4-benzodiazepin-3-yl)-2,3-bis(3,3,3-trifluoropropyl)succinamide], for which, in “in vitro”, the half-life amounted to 48 min. Same read-out and setting: in the case of `Cc1cccc(C2=N[C@H](NC(=O)[C@H](CCC(F)(F)F)[C@H](CCCC(F)(F)F)C(N)=O)C(=O)Nc3c(OC4CC4)cccc32)c1` [Example 14, (2R,3S)—N-((3S)-9-(Cyclopropyloxy)-5-(3-methylphenyl)-2-oxo-2,3-dihydro-1H-1,4-benzodiazepin-3-yl)-3-(4,4,4-trifluorobutyl)-2-(3,3,3-trifluoropropyl)succinamide] it was 56 min; in that of `Cc1cccc(C2=N[C@H](NC(=O)[C@H](CCC(F)(F)F)[C@H](CCC(F)(F)F)C(N)=O)C(=O)Nc3c(OC4CC4)cccc32)c1` [Example 15, (2R,3S)—N-((3S)-9-(Cyclopropyloxy)-5-(3-methylphenyl)-2-oxo-2,3-dihydro-1H-1,4-benzodiazepin-3-yl)-2,3-bis(3,3,3-trifluoropropyl)succinamide], 101 min. In turn, `NC(=O)[C@@H](CCCC(F)(F)F)[C@@H](CCC(F)(F)F)C(=O)N[C@H]1N=C(c2ccccc2)c2cccc(OC3CC3)c2NC1=O` [Example 16, (2R,3S)—N-((3S)-9-(Cyclopropyloxy)-2-oxo-5-phenyl-2,3-dihydro-1H-1,4-benzodiazepin-3-yl)-3-(4,4,4-trifluorobutyl)-2-(3,3,3-trifluoropropyl)succinamide] yielded an IC50 against human Notch 3 of 3.7 nM. The compound further came in with a half-life in the data set “in vitro” of 108 min. `COc1cccc2c1NC(=O)[C@@H](NC(=O)[C@H](CCC(F)(F)F)[C@H](CCC(F)(F)F)C(N)=O)N=C2c1cccc(C)c1` [Example 29, (2R,3S)—N-((3S)-5-(3-Methylphenyl)-9-methoxy-2-oxo-2,3-dihydro-1H-1,4-benzodiazepin-3-yl)-2,3-bis(3,3,3-trifluoropropyl)succinamide] registered a half-life in the data set “in vitro” of 98 min. The compound `NC(=O)[C@@H](CCC(F)(F)F)[C@@H](CCC(F)(F)F)C(=O)N[C@H]1N=C(c2ccc(CO)cc2)c2ccccc2NC1=O` [Example 30, (2R,3S)—N-((3S)-5-(4-(Hydroxymethyl)phenyl)-2-oxo-2,3-dihydro-1H-1,4-benzodiazepin-3-yl)-2,3-bis(3,3,3-trifluoropropyl)succinamide] yielded a half-life in “in vitro” of 92 min.

In the data set “in vitro”, `Cc1cccc(C2=N[C@H](NC(=O)[C@H](CCC(F)(F)F)[C@H](CCC(F)(F)F)C(N)=O)C(=O)Nc3ccccc32)c1` [Example 32, (2R,3S)—N-((3S)-5-(3-Methylphenyl)-2-oxo-2,3-dihydro-1H-1,4-benzodiazepin-3-yl)-2,3-bis(3,3,3-trifluoropropyl)succinamide] gave a half-life of 82 min.

Regarding `COc1cccc2c1NC(=O)[C@@H](NC(=O)[C@H](CCC(F)(F)F)[C@H](CCC(F)(F)F)C(N)=O)N=C2c1ccc(Cl)cn1` [Example 34, (2R,3S)—N-((3S)-5-(5-Chloro-2-pyridinyl)-9-methoxy-2-oxo-2,3-dihydro-1H-1,4-benzodiazepin-3-yl)-2,3-bis(3,3,3-trifluoropropyl)succinamide], the half-life in “in vitro” came out at 116 min. Regarding `COc1ccc(C2=N[C@H](NC(=O)[C@H](CCC(F)(F)F)[C@H](CCC(F)(F)F)C(N)=O)C(=O)Nc3ccccc32)cc1` [Example 35, (2R,3S)—N-((3S)-5-(4-Methoxyphenyl)-2-oxo-2,3-dihydro-1H-1,4-benzodiazepin-3-yl)-2,3-bis(3,3,3-trifluoropropyl)succinamide], the half-life in the data set “in vitro” is 118 min.
